Experimental data reported in ChEMBL document CHEMBL1201862, “PubChem BioAssay data set” (2004).
Calls of active or inactive are those of the source.

Legend:
Steroidogenic factor 1 = Steroidogenic factor 1 (Homo sapiens, UniProt Q13285); assay: Counterscreen for inverse agonists of the liver receptor homolog-1 (LRH-1; NR5A2): Luminescence-based cell-based high throughput dose response assay to identify inverse agonists of the Steroidogenic Factor 1 Nuclear Receptor (SF1; NR5A1).; type: functional
[1] = biological target: Nuclear receptor subfamily 5 group A member 2 (Homo sapiens, UniProt O00482); type: functional, cell-based;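 also: HEK293T cells transfected with LRH-1 and a StAR promoter luciferase reporter; potency for inhibitors that lower LRH-1 driven reporter light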
[2] = nonselective StAR promoter luciferase inhibitors – cell-based, luminescence, luciferase reporter, counter-screen for LRH-1 inverse agonist project, dose response (AID 651969); type: functional
[3] = intracellular Trypanosoma cruzi inhibitors in host cells – cell-based, plate reader, cherry-pick samples, set 3, dose response (AID 651818); type: functional;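 also: compounds incubated with infected cells for about four days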
HeLa = assay: viability loss in HeLa cells – cell-based, ATP luminescence, cherry-pick samples, cytotoxicity control, dose response (AID 687004); type: functional; settings: Homo sapiens
HEK293 = assay: viability loss in HEK293T cells – cell-based, ATP luminescence, cherry-pick samples, cytotoxicity control, dose response (AID 687005); type: functional; settings: Homo sapiens;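 also: cells exposed to compound for 48 hours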
[4] = HEK293 Cytotoxicity Assay Measured in Cell-Based System Using Plate Reader - 7071-01_Inhibitor_Dose_CherryPick_Activity_Set2.; type: functional
Albumin = Albumin (Bos taurus, UniProt P02769); assay: Counterscreen for inhibitors of T-cell receptor (TCR)-CD3 interaction: Fluorescence-based biochemical high throughput dose response assay to identify inhibitors of T-cell receptor (TCR)-CD3 interaction using a TAMRA-labeled BSA probe.; type: functional
Exodeoxyribonuclease V = biological target: T1, Exodeoxyribonuclease V (Escherichia coli (strain K12), UniProt P04993+P07648+P08394); assay: RecBCD inhibition via phage-restricted bacterial growth – absorbance, V66 E. coli, mutant T4 phage, counter-screen for AddAB inhibitor project, dose response (AID 492957); type: functional, cell-based, Escherichia coli str. K-12 substr. MG1655
T1 sequence (P04993 whole entry): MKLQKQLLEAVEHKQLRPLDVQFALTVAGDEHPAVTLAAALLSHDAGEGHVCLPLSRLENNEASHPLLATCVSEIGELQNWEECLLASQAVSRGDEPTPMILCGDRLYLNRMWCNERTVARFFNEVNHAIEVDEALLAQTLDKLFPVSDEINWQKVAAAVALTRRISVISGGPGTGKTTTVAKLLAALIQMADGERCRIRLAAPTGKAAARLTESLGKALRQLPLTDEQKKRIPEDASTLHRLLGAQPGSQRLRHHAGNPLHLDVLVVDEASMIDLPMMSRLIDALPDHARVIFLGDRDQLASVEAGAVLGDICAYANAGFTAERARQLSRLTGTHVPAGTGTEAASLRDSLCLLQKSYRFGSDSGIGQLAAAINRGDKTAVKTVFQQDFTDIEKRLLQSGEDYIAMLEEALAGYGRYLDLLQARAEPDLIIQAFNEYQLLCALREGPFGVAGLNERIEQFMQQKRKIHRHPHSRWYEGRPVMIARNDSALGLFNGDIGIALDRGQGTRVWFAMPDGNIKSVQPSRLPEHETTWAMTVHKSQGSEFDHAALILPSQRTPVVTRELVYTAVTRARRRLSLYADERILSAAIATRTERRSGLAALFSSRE
T1 sequence (P07648 whole entry): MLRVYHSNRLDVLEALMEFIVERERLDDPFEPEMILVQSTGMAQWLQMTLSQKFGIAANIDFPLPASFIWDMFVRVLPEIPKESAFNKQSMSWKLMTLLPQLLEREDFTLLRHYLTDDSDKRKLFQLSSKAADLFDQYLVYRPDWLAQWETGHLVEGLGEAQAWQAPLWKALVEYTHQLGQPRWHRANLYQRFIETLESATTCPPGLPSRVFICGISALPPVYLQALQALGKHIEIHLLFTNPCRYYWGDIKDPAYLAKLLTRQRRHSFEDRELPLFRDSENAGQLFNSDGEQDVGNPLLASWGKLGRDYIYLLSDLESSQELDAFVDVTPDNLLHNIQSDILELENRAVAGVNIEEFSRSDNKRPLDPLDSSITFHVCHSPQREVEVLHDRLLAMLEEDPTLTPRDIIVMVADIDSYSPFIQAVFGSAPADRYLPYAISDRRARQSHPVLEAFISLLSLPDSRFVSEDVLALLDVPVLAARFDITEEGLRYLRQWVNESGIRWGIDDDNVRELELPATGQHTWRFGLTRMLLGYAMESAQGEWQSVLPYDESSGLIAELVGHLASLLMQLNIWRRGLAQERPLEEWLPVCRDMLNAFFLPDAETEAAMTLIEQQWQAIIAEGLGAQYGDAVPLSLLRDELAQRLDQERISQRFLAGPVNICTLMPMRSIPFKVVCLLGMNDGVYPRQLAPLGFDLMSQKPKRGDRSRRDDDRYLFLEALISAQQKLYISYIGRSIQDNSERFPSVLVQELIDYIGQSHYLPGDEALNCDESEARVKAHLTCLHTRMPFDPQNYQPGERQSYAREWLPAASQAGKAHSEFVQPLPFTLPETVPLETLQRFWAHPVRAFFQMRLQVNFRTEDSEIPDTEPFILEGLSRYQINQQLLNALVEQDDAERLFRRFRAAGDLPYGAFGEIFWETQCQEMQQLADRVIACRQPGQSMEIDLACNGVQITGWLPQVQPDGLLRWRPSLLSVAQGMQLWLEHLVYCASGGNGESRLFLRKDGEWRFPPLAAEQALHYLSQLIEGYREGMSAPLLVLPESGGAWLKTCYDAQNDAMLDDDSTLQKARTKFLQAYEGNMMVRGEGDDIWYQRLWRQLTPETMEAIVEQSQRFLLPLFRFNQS
T1 sequence (P08394 whole entry): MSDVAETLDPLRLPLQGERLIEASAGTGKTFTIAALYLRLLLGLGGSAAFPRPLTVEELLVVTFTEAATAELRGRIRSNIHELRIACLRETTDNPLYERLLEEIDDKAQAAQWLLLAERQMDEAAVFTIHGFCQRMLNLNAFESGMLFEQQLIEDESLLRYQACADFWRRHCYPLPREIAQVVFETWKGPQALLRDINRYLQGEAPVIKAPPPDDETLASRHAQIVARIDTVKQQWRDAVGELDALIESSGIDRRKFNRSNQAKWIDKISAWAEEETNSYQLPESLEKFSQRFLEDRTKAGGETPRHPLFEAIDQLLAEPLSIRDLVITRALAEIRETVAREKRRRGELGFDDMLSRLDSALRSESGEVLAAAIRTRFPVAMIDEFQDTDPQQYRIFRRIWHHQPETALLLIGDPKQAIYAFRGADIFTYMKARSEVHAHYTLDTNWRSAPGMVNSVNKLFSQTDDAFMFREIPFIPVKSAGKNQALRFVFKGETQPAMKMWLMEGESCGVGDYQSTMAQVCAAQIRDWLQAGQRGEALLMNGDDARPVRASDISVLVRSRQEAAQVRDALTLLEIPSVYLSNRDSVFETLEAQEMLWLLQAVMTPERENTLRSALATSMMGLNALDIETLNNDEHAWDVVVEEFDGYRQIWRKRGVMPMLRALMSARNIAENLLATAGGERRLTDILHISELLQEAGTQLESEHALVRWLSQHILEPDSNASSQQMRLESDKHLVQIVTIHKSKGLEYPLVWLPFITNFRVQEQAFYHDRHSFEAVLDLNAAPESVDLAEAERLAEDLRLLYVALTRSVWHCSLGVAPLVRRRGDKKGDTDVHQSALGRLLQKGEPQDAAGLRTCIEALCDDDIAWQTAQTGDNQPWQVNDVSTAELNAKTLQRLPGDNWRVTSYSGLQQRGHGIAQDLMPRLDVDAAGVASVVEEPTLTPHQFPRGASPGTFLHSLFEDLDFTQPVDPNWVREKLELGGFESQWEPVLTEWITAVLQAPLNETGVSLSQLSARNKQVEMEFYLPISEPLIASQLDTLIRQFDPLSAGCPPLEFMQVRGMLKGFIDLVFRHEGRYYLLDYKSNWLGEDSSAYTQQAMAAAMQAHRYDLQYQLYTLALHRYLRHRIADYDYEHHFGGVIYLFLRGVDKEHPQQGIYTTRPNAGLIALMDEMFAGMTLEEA

[5] = Counterscreen for AddAB inhibitors: absorbance-based bacterial cell-based high throughput dose response assay for inhibitors of bacterial viability. [Related pubchem assays (depositor defined):AID435030, AID449728, AID449731, AID488942, AID488955, AID488956]; type: functional
[6] = blockers of HIV-1 envelope-mediated cell-cell fusion – cherry-pick, dose response (AID 652057); type: functional, cell-based
[7] = HIV-1 AD8 envelope cell-cell fusion blockers – cherry-pick, dose response (AID 652062); type: functional, cell-based;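 also: luciferase signal from cell-cell fusion driven by HIV-1 clade B AD8 Env; potency is for inhibitors of fusion seen as a drop in luminescence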
[8] = off-target signal loss in HeLa-CEM21 co-culture – HeLa F-luc CTL cells, cherry-picked, counter-screen for HIV-1 Env fusion inhibitor project, dose response (AID 652040); type: functional, cell-based;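 also: potency for signal decrease marking cytotoxic or nonspecific inhibition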
[9] = blockers of HIV-1 ZM109 envelope-driven cell-cell fusion – HeLa effector, CEM target cells, luciferase, cherry-pick, dose response (AID 652058); type: functional, cell-based;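 also: luciferase signal from HIV-1 Env mediated cell-cell fusion of effector and target cells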
[10] = viability loss in CEM21 cells – cell-based, CellTiter-Glo luminescence, cherry-picked, cytotoxicity control for viral fusion inhibitor project, dose response (AID 652042); type: functional;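 also: potency for signal decrease meaning cytotoxicity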
[11] = CMV-driven luciferase expression suppression in HEK293 – cell-based, luminescence, dry powder, counter-screen for Pax8 inhibitor project, dose response (AID 743020); type: functional
[12] = biological target: Photoreceptor-specific nuclear receptor (Homo sapiens, UniProt Q9Y5X4); type: functional, cell-based;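 also: CHO-S cells with Gal4-NCOR and VP16-NR2E3 two-hybrid luciferase reporter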
Paired box protein Pax-8 = Paired box protein Pax-8 (Homo sapiens, UniProt Q06710); assay: PAX8 transcriptional activity inhibition in RMG-I – RMG-I cells, luciferase, cherry-pick, dose response (AID 687027); type: functional, cell-based;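 also: luciferase reporter driven by Pax8 target thyroperoxidase promoter measured by SteadyGlo luminescence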
[13] = biological target: T2, Scavenger receptor class B member 1 (Mus musculus, UniProt Q61009); assay: blockers of DiI-HDL lipid transfer via SR-BI – cell-based, ldlA[mSR-BI] CHO, DiI fluorescence, dry powder, set 10, dose response (AID 624029); type: functional
[14] = biological target: T2, Scavenger receptor class B member 1; assay: mouse SR-BI DiI-HDL transfer blockers – ldlA[mSR-BI] CHO cells, fluorescence plate reader, dry powder, set 9, dose response (AID 623880); type: functional, cell-based
[15] = cell viability loss, ATP luminescence – CellTiter-Glo, 24 h, powder samples, set 7, cytotoxicity control for SR-BI HDL uptake inhibitor project, dose response (AID 624026); type: functional, cell-based

T2 sequence (Q61009 whole entry): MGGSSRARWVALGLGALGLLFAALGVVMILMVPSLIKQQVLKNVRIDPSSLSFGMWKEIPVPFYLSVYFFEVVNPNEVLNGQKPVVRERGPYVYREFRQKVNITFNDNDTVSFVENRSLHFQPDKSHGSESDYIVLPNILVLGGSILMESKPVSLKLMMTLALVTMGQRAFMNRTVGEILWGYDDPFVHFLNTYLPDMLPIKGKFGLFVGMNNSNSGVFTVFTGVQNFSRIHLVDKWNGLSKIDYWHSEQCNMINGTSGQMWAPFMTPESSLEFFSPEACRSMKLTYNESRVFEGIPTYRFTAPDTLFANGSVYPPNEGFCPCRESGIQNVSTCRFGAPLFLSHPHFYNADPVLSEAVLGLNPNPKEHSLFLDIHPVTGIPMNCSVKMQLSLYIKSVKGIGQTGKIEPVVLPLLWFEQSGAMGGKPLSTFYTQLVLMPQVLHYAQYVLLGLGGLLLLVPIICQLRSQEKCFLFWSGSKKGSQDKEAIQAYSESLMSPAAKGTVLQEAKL
Sequence of Albumin (P02769 whole entry): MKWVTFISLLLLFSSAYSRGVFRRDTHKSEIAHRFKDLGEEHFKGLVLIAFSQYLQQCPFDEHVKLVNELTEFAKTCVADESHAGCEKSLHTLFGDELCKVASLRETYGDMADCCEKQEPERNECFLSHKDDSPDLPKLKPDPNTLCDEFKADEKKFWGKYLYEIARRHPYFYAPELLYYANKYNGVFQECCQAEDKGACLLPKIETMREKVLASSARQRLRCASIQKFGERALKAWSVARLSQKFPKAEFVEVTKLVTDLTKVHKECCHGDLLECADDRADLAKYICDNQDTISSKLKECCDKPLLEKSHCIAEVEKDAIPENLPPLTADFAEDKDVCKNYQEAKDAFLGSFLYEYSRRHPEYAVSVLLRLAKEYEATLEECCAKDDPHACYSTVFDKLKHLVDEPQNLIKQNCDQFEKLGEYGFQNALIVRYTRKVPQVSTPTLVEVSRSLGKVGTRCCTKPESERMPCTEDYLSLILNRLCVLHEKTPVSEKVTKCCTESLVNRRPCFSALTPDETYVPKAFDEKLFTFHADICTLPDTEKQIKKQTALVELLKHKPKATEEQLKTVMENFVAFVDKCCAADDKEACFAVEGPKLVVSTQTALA
Sequence of Nuclear receptor subfamily 5 group A member 2 (O00482 whole entry): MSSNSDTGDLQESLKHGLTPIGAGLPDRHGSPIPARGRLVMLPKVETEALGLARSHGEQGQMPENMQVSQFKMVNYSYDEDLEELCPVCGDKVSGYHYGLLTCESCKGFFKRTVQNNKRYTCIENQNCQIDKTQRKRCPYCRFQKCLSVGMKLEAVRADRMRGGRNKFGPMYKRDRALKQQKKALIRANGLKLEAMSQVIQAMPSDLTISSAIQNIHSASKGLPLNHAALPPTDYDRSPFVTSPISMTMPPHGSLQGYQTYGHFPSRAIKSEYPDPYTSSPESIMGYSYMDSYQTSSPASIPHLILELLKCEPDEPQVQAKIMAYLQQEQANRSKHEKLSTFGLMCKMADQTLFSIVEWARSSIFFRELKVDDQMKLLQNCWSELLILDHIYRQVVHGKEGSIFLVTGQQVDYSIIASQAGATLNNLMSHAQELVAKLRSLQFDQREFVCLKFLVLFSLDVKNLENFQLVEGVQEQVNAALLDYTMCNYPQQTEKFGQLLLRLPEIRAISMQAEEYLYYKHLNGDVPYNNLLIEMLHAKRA
Sequence of Paired box protein Pax-8 (Q06710 whole entry): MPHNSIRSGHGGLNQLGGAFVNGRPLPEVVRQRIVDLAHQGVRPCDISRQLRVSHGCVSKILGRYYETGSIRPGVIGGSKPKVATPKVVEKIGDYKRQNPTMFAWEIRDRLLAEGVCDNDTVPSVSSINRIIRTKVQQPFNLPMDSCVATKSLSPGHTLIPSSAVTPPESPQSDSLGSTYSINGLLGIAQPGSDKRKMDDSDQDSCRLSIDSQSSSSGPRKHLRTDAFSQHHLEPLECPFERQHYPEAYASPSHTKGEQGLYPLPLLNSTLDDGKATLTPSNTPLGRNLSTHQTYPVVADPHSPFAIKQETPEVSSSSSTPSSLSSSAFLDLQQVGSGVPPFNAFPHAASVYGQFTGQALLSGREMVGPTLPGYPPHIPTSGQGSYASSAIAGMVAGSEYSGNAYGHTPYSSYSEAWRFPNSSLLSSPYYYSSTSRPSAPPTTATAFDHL
Sequence of Photoreceptor-specific nuclear receptor (Q9Y5X4 whole entry, the tested form may be a part): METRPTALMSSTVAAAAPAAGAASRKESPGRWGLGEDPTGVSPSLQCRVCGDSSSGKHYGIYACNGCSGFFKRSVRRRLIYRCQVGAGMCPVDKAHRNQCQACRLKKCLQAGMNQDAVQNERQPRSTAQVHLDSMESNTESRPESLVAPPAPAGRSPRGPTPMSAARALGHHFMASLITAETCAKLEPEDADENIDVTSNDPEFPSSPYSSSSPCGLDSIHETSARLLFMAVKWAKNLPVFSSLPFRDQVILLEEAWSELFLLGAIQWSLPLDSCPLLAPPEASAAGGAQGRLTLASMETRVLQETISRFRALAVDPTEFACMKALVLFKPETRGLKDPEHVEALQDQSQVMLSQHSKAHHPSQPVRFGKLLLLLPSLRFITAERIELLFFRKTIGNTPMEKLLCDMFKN
Sequence of Steroidogenic factor 1 (Q13285 whole entry): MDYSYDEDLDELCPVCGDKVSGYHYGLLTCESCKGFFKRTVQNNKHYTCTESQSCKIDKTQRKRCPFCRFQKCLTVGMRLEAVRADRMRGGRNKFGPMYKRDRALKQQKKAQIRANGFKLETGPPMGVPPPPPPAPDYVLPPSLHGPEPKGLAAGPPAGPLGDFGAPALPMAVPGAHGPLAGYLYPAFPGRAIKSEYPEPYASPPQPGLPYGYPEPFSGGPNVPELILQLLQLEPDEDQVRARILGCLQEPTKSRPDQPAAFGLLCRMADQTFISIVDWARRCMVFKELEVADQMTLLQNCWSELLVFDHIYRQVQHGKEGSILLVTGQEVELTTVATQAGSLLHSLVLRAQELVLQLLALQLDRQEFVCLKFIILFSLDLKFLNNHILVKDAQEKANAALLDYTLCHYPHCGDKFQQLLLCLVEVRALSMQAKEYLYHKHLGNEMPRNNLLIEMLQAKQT

SMILES: COc1cc(/C=N/n2nnnc2N)ccc1OCc1c(C)no[n+]1[O-]
- IC50 (Steroidogenic factor 1): 6.23 µM (active)
- IC50 [1]: 12.4 µM (inactive)
- IC50 [2]: 35.9 µM (inactive)

SMILES: C[C@H](CO)N1C[C@H](C)[C@H](CN(C)Cc2ccc(-c3ccccc3)cc2)Oc2c(NC(=O)c3ccncc3)cccc2C1=O
- AC50 [3]: 0.08 µM (active)
- AC50 (HeLa): > 52 µM (inactive)
- AC50 (HEK293): 14.2 µM (active)
- AC50 [4]: 14.2 µM (active)

SMILES: COc1ccc(/C=C2\SC(=O)N(CC(=O)NNC(=O)c3ccccc3O)C2=O)cc1OC
- IC50 (Albumin): > 94.1 µM (inactive)
- IC50 (Exodeoxyribonuclease V): > 119 µM (inactive)
- IC50 [5]: > 119 µM (inactive)

SMILES: CCC1(O)C(=O)OCc2c1cc1n(c2=O)Cc2cc3c(N)cccc3nc2-1 (stereo unspecified) [RS-9-Aminocamptothecin]
- AC50 [6]: < 0.26 µM (active)
- AC50 [7]: 0.368 µM (active)
- AC50 [8]: < 0.26 µM (active)
- AC50 [9]: 0.857 µM (active)
- AC50 [10]: 2.67 µM (active)
- AC50 [11]: < 6.17 µM (active)
- IC50 [12]: 1.83 µM (active)
- AC50 (Paired box protein Pax-8): < 0.26 µM (active)

SMILES: CC(C)(C)OC(=O)N1CCN(c2ccc(NC(=O)c3cc([N+](=O)[O-])ccc3Cl)cc2)CC1
- AC50 [13]: 0.953 µM (active)
- AC50 [14]: 0.503 µM (active)
- AC50 [15]: > 70 µM (inactive)
